Data from the supplement of paper PMC12137928.
Structures can show the parent of a compound that is named as a salt.

System: HCT116
Details: 72 h
Outline: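 HCT116 cells were seeded at 250 per well in 1536-well plates with 5 h allowed for attachment. CellTiter-Glo luminescence was normalized against vehicle (0%) and positive control (-100%) before pattern correction. The IC50 and maximal efficacy figures derive from four-parameter Hill fits.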

IC50 cell viability (ICRF193 0 nM) | IC50 cell viability (ICRF193 200 nM) | SMILES
> 45.8 µM | > 45.8 µM | Cc1c(O)c(=O)ccn1C [Deferiprone]
> 45.8 µM | > 45.8 µM | CC(=O)OCC(=O)[C@@]12N=C(C)O[C@@H]1C[C@H]1[C@@H]3CCC4=CC(=O)C=C[C@]4(C)[C@H]3[C@@H](O)C[C@@]12C [Deflazacort]
> 45.8 µM | > 45.8 µM | C[C@H](CCC(=O)O)[C@H]1CC[C@H]2[C@@H]3C(=O)C[C@@H]4CC(=O)CC[C@]4(C)[C@H]3CC(=O)[C@]12C [Dehydrocholic acid]
> 45.8 µM | > 45.8 µM | Nc1nc(-n2cc(C(=O)O)c(=O)c3cc(F)c(N4CC(O)C4)c(Cl)c32)c(F)cc1F [Delafloxacin (meglumine)]
> 45.8 µM | > 45.8 µM | C[C@]1(COc2ccc(N3CCC(Oc4ccc(OC(F)(F)F)cc4)CC3)cc2)Cn2cc([N+](=O)[O-])nc2O1 [Delamanid]
> 45.8 µM | > 45.8 µM | CCOC(=O)[C@H](CCc1ccccc1)N[C@@H](C)C(=O)N(CC(=O)O)C1Cc2ccccc2C1 [Delapril hydrochloride]
> 45.8 µM | > 45.8 µM | CC(C)Nc1cccnc1N1CCN(C(=O)c2cc3cc(NS(C)(=O)=O)ccc3[nH]2)CC1 [Delavirdine]
> 45.8 µM | > 45.8 µM | CN(CCCCCCCCCCN(C)C(=O)Oc1cccc([N+](C)(C)C)c1)C(=O)Oc1cccc([N+](C)(C)C)c1 [Demecarium bromide]
> 45.8 µM | > 45.8 µM | CC[N+](CC)(CC(=O)Nc1c(C)cccc1C)Cc1ccccc1 [Denatonium benzoate]
> 45.8 µM | > 45.8 µM | CC(=O)OCC(=O)[C@H]1CC[C@H]2[C@@H]3CCC4=CC(=O)CC[C@]4(C)[C@H]3CC[C@]12C [Deoxycorticosterone acetate]
> 45.8 µM | > 45.8 µM | CCCCNc1ccc(C(=O)OCCN(CC)CC)cc1 [Depolipon]
> 45.8 µM | > 45.8 µM | COc1ccc(-c2cc(C(F)F)nn2-c2ccc(S(N)(=O)=O)cc2)cc1F [Deracoxib]
> 45.8 µM | > 45.8 µM | CN1C(=O)[C@]23C[C@H]4C(C)(C)[C@]5(CNc6c5ccc5c6OC=CC(C)(C)O5)C[C@@]41CN2CC[C@@]3(C)O [Derquantel]
> 45.8 µM | > 45.8 µM | Clc1ccc2c(c1)CCc1cccnc1C2=C1CCNCC1 [Desloratadine]

The remaining lines, values behind:

SMILES | IC50 cell viability (ICRF193 0 nM) | IC50 cell viability (ICRF193 200 nM)
CN(C)CC(c1ccc(O)cc1)C1(O)CCCCC1 (stereo unspecified) [DESVENLAFAXINE SUCCINATE] | > 45.8 µM | > 45.8 µM
OC[C@H]1OC(O)[C@H](O)[C@@H](O)[C@@H]1O (stereo partly specified) [DEXTROSE] | > 45.8 µM | > 45.8 µM
NC[C@@H]1CC[C@@H](N)[C@@H](O[C@H]2[C@H](O)[C@@H](O[C@H]3O[C@H](CO)[C@@H](O)[C@H](N)[C@H]3O)[C@H](N)C[C@@H]2N)O1 [DIBEKACIN] | > 45.8 µM | > 45.8 µM
CC(C)(C)c1ccc2c(S(=O)(=O)O)c(C(C)(C)C)ccc2c1 [DIBUNATE SODIUM] | > 45.8 µM | > 45.8 µM
CCN(CC)C(=O)N1CCN(C)CC1 [DIETHYLCARBAMAZINE CITRATE] | > 45.8 µM | > 45.8 µM
CN[C@@H]1[C@H](O[C@H]2[C@H](O[C@H]3[C@H](O)[C@@H](O)[C@H](NC(=N)N)[C@@H](O)[C@@H]3NC(=N)N)O[C@@H](C)[C@]2(O)CO)O[C@@H](CO)[C@H](O)[C@H]1O [DIHYDROSTREPTOMYCIN [5mM]] | > 45.8 µM | > 45.8 µM
CC/C=C\C/C=C\C/C=C\C/C=C\C/C=C\C/C=C\CCC(=O)O [DOCONEXENT] | > 45.8 µM | > 45.8 µM
Cc1cc(CC(C)C[Si](C)(O[Si](C)(C)C)O[Si](C)(C)C)c(O)c(-n2nc3ccccc3n2)c1 (stereo unspecified) [DROMETRIZOLE TRISILOXANE] | > 45.8 µM | > 45.8 µM
CN[C@H]1C(=O)N[C@@H]2Cc3ccc(cc3)Oc3cc4cc(c3O[C@@H]3O[C@H](C(=O)O)[C@@H](O)[C@H](O)[C@H]3NC(=O)CCCCCCCCC(C)C)Oc3ccc(cc3Cl)[C@@H](O)[C@@H]3NC(=O)[C@H](NC(=O)[C@@H]4NC(=O)[C@@H](NC2=O)c2cc(cc(O)c2Cl)Oc2cc1ccc2O)c1ccc(O)c(c1)-c1c(O[C@H]2O[C@H](CO)[C@@H](O)[C@H](O)[C@@H]2O)cc(O)cc1[C@@H](C(=O)NCCCN(C)C)NC3=O [Dalbavancin] | > 45.8 µM | > 45.8 µM
CCNC(=O)NCCCOc1cccc(CN2CCCCC2)c1 [Dalcotidine] | > 45.8 µM | > 45.8 µM
CCN(CC)CCS(=O)(=O)[C@@H]1CCN2C(=O)c3coc(n3)CC(=O)C[C@H](O)/C=C(C)/C=C/CNC(=O)/C=C/[C@@H](C)[C@@H](C(C)C)OC(=O)[C@@H]12 [Dalfopristin] | > 45.8 µM | > 45.8 µM
CN1C[C@@H]2C[C@H]1CN2c1cc2c(cc1F)c(=O)c(C(=O)O)cn2C1CC1 [Danofloxacin] | > 45.8 µM | > 45.8 µM
O=C1c2cccc(O)c2C(=O)c2c(O)cccc21 [Danthron] | > 45.8 µM | > 45.8 µM
O=C1CN(/N=C/c2ccc(-c3ccc([N+](=O)[O-])cc3)o2)C(=O)N1 [Dantrolene sodium] | > 45.8 µM | > 45.8 µM
CCOc1ccc(Cc2cc([C@@H]3O[C@H](CO)[C@@H](O)[C@H](O)[C@H]3O)ccc2Cl)cc1 [Dapagliflozin] | > 45.8 µM | > 45.8 µM
Cc1ccccc1N1CCN(CCc2nnc3n2CCCC3)CC1 [Dapiprazole hydrochloride] | > 45.8 µM | > 45.8 µM
Nc1ccc(S(=O)(=O)c2ccc(N)cc2)cc1 [Dapsone] | > 45.8 µM | > 45.8 µM
CCCCCCCCCC(=O)N[C@@H](Cc1c[nH]c2ccccc12)C(=O)N[C@H](CC(N)=O)C(=O)N[C@@H](CC(=O)O)C(=O)N[C@@H]1C(=O)NCC(=O)N[C@@H](CCCN)C(=O)N[C@@H](CC(=O)O)C(=O)N[C@H](C)C(=O)N[C@@H](CC(=O)O)C(=O)NCC(=O)N[C@H](CO)C(=O)N[C@@H]([C@H](C)CC(=O)O)C(=O)N[C@@H](CC(=O)c2ccccc2N)C(=O)O[C@@H]1C [Daptomycin] | > 45.8 µM | > 45.8 µM
C[N+](C)(C)CCCCCCCCCC[N+](C)(C)C [Decamethonium bromide] | > 45.8 µM | > 45.8 µM
CCCCCCCCCC(=O)O [Decanoic acid] | > 45.8 µM | > 45.8 µM
Nc1ncn([C@H]2C[C@H](O)[C@@H](CO)O2)c(=O)n1 [Decitabine] | > 45.8 µM | > 45.8 µM
CCCCCCCCCCOc1cc2c(O)c(C(=O)OCC)cnc2cc1OCC [Decoquinate] | > 45.8 µM | > 45.8 µM
C[C@]12CC[C@H](OS(=O)(=O)O)CC1=CC[C@@H]1[C@@H]2CC[C@]2(C)C(=O)CC[C@@H]12 [Dehydroepiandrosterone Sulfate (sodium salt)] | > 45.8 µM | > 45.8 µM
C[C@]12CC[C@H](O)CC1=CC[C@@H]1[C@@H]2CC[C@]2(C)C(=O)CC[C@@H]12 [Dehydroepiandrosterone] | > 45.8 µM | > 45.8 µM
